Experiment [1] deals with PI3Kγ (p110γ) Recombinant Human Protein (Homo sapiens (Human), UniProt P48736). Kind of experiment: PI3K-γ scintillation proximity assay. The settings on record: 20 μM PIP2, 2 μM ATP, 13 nM PI3Kγ, 120 min, room temperature. Type of experiment: biochemical. In outline: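 Radiometric SPA in 20 mM MOPS pH 6.7, 10 mM MgCl2, 5 mM DTT, 0.03% CHAPS, 2% DMSO. Stopped with EDTA and WGA SPA beads for scintillation counting. IC50 fitted from % solvent-control activity versus log concentration.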
PI3Kγ (p110γ) Recombinant Human Protein, sequence (P48736 whole entry): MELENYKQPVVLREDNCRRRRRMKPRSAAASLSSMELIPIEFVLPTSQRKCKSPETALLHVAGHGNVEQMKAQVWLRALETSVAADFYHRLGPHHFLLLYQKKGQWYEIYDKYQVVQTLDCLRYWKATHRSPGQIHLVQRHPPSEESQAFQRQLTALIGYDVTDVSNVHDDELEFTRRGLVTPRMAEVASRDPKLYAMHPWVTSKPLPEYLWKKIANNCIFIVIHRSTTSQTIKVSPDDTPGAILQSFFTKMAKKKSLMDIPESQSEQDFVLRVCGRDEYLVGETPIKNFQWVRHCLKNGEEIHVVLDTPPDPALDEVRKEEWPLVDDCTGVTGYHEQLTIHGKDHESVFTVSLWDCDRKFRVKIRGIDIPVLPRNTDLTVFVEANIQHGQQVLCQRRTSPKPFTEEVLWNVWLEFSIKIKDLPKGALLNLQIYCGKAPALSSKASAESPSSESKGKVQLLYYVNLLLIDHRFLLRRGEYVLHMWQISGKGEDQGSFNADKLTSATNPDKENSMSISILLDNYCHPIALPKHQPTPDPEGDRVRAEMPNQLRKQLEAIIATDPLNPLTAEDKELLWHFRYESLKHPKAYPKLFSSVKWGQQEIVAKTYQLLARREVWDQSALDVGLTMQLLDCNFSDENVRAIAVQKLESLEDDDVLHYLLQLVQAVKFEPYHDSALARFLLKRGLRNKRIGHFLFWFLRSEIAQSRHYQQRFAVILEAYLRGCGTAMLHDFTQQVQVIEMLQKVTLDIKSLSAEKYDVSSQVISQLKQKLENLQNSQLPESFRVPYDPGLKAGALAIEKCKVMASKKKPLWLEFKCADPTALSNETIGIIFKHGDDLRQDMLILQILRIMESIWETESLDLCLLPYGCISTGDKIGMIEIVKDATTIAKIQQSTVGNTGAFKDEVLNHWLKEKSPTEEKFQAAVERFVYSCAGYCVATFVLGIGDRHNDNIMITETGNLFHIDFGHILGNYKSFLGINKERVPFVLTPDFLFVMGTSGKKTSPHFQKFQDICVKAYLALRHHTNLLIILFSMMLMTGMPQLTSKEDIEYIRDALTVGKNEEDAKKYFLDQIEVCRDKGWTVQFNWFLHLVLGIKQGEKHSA

In experiment [2] the target is PI3Kδ (p110δ/p85α) Recombinant Human Protein (Homo sapiens (Human), UniProt O00329). Put plainly: PI3Kδ scintillation proximity assay. Format: biochemical. The settings on record: 20 μM PIP2, 2 μM ATP, 3.4 nM PI3Kδ, 120 min, room temperature; read-out: PI3Kδ IC50. The method, boiled down: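 Recombinant human p110δ/p85α was run at room temperature in 20 mM MOPS pH 6.7, 10 mM MgCl2, 5 mM DTT, 0.03% CHAPS, 2% DMSO. Substrates were 20 µM PIP2 and 2 µM ATP with [γ-33P]ATP. Product was captured overnight on WGA SPA beads and counted by scintillation; IC50 fitted from percent of solvent control versus log concentration.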
PI3Kδ (p110δ/p85α) Recombinant Human Protein, sequence (O00329 whole entry): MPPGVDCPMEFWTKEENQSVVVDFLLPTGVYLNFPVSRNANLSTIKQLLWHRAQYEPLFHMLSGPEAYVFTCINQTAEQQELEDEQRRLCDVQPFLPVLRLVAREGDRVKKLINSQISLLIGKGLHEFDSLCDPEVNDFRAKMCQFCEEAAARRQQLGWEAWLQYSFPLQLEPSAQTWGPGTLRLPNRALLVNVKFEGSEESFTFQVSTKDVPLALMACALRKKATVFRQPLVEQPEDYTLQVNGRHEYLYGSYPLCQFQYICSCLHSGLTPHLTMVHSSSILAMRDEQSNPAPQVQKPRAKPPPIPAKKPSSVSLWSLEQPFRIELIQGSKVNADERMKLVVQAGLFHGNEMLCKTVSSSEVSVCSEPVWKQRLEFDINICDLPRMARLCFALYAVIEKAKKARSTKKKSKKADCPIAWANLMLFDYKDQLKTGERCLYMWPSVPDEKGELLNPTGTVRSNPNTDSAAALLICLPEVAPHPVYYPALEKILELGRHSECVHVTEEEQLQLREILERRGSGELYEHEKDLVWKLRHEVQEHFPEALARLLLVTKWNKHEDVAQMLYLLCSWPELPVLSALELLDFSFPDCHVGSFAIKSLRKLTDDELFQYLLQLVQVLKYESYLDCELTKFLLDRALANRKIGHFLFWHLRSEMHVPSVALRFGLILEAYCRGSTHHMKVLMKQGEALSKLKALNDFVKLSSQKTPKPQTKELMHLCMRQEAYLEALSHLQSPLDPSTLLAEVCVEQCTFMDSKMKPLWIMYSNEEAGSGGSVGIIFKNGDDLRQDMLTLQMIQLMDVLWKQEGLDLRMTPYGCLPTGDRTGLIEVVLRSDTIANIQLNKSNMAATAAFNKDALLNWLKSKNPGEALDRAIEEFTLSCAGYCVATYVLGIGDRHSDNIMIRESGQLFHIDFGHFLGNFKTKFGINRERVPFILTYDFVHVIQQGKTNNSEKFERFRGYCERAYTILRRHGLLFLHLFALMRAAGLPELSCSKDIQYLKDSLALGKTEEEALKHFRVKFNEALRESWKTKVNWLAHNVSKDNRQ
PI3Kδ (p110δ/p85α) Recombinant Human Protein, sequence (P27986 whole entry partner): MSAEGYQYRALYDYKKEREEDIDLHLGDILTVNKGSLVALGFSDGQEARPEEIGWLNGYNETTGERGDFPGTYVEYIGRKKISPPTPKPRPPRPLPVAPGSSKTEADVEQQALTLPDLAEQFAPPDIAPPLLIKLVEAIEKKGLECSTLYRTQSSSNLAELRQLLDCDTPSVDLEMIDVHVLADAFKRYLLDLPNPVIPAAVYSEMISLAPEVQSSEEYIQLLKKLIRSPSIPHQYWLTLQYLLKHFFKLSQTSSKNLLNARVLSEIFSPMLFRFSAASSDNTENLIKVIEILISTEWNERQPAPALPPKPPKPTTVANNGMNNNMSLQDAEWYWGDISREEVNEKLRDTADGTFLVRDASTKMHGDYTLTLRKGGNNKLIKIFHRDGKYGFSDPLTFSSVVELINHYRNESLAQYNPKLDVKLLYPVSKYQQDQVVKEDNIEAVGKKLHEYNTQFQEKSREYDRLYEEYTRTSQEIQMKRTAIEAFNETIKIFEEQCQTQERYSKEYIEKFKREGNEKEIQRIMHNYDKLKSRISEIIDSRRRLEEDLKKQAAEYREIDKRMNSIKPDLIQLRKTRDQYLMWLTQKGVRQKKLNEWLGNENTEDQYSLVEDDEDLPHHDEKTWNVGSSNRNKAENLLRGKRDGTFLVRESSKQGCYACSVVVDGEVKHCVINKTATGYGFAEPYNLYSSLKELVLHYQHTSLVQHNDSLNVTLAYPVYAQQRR

In experiment [3] the test system is Phosphorylated Ribosomal Protein S6 (RPS6) in THP-1 cells. Put plainly: THP-1 RPS6 ELISA assay. Format: cell-based, Human. The following applies: serum starved, 2 h compound, 10 nM MCP-1 for 15 min, phospho-RPS6 ELISA, read-out: PI3Kγ_THP1_RPS6_ELISA IC50. Here is the method: Example A. THP-1 RPS6 ELISA Assay
To measure the Phosphorylated Ribosomal Protein S6 (RPS6) in cell lysates, THP-1 cells (Human Acute Monocytic Leukemia) are purchased from ATCC (Manassas, Va.) and maintained in RPMI with 10% FBS (Gibco/Life Technologies, Carlsbad, Calif.). For the assay, THP-1 cells are serum starved overnight in RPMI, then plated in RPMI (2×10^5 cells/well in 90 μL) into 96-well flat-bottom tissue culture treated plates (Corning, Corning, N.Y.), in the presence or absence of a concentration range of test compounds. Covered plates are incubated for 2 hours at 37° C., 5% CO2 then treated with or without 10 nM MCP-1 (MYBioSource, San Diego, Calif.) for 15 minutes at 37° C., 5% CO2. Plates are centrifuged at 1600 RPM and supernatants are removed. Cells are lysed in Lysis Buffer (Cell Signaling, Danvers, Mass.) with Protease Inhibitor (Calbiochem/EMD, Germany), PMSF (Sigma, St Louis Mo.), HALTS (Thermo Fisher, Rockford, Ill.) for 30 min on wet ice. Cell lysates are frozen at −80° C. before testing. The lysates are tested in the Human/Mouse/Rat Phospho-RPS6 ELISA (R&D Systems, Inc. Minn, Minn.). The plate is measured using a microplate reader (SpectraMax M5—Molecular Devices, LLC Sunnyvale, Calif.) set to 450 nm with a wavelength correction of 540. IC50 determination is performed by fitting the curve of inhibitor percent inhibition versus the log of the inhibitor concentration using the GraphPad Prism 5.0 software.
A general note: In an ELISA, binding on a coated surface is turned into a signal by an enzyme label.

[4] abbreviates: Homo sapiens, THP-1, THP-1 cells.

Each structure is given as a SMILES string. Structures can show the parent of a compound that is named as a salt. Where two headings read alike, the source gives them in different places. Some results are limits rather than exact numbers.

18 molecules from patent US10738057B2, “Tertiary alcohols as PI3K-γ inhibitors” (Incyte Corporation, priority 2017, dated 2020) can be followed below.

For orientation: IC50 means the midpoint of a concentration-inhibition curve. As for `Cc1ccc(C(C)(O)C(F)F)cc1-c1cnc2c(N)nc(C(F)(F)F)cn12` (single isomer, unassigned) [Example 26, 2-(3-(8-Amino-6-(trifluoromethyl)imidazo[1,2-a]pyrazin-3-yl)-4-methylphenyl)-1,1-difluoropropan-2-ol], the half-maximal inhibitory concentration (IC50) is below 100 nM in experiment [1], 500 to 2000 nM in experiment [2] and 500 to 1000 nM in experiment [3] (THP-1 cells).
In the same order, the values of `Cc1ccc(C(C)(O)C(F)F)cc1-c1cnc2c(N)nc(C(F)(F)F)cn12` (single isomer, unassigned) [Example 27, 2-(3-(8-Amino-6-(trifluoromethyl)imidazo[1,2-a]pyrazin-3-yl)-4-methylphenyl)-1,1-difluoropropan-2-ol] are below 100 nM, 100 to 500 nM and 100 to 500 nM.
On to `Cc1ccc(C(C)(O)C(F)F)cc1-c1cnc2c(N)nc(-c3ccnn3C)cn12` (single isomer, unassigned) [Example 29, 2-(3-(8-Amino-6-(1-methyl-1H-pyrazol-5-yl)imidazo[1,2-a]pyrazin-3-yl)-4-methylphenyl)-1,1-difluoropropan-2-ol 1.2 trifluoroacetate salt], for which the half-inhibitory concentration (IC50) in experiment [1] was below 100 nM; in experiment [2], 100 to 500 nM; in experiment [3] (setting [4]), 100 to 500 nM.
As for `Cc1ccc(C(C)(O)C(F)F)cc1-c1cnc2c(N)nc(-c3ccnn3C)cn12` (single isomer, unassigned) [Example 30, 2-(3-(8-Amino-6-(1-methyl-1H-pyrazol-5-yl)imidazo[1,2-a]pyrazin-3-yl)-4-methylphenyl)-1,1-difluoropropan-2-ol], the IC50 in experiment [1] is below 100 nM; in experiment [2], 100 to 500 nM; in experiment [3] (THP-1 cells), 100 to 500 nM.
On to `Cc1ccc(C(C)(O)C(F)F)cc1-c1cnc2c(N)nc(-c3ccnc(CO)c3)cn12` (single isomer, unassigned) [Example 44, 2-(3-(8-Amino-6-(2-(hydroxymethyl)pyridin-4-yl)imidazo[1,2-a]pyrazin-3-yl)-4-methylphenyl)-1,1-difluoropropan-2-ol], for which the IC50 in experiment [1], in experiment [2] and in experiment [3] (setting [4]) was below 100 nM throughout.
As for `Cc1ccc(C(C)(O)C(F)F)cc1-c1cnc2c(N)nc(-c3ccnc(CO)c3)cn12` (single isomer, unassigned) [Example 45, 2-(3-(8-Amino-6-(2-(hydroxymethyl)pyridin-4-yl)imidazo[1,2-a]pyrazin-3-yl)-4-methylphenyl)-1,1-difluoropropan-2-ol], the half-maximal inhibitory concentration (IC50) in experiment [1] was below 100 nM; in experiment [2], below 100 nM; in experiment [3] (THP-1 cells), 100 to 500 nM.
`Cc1ccc(C(C)(O)C(F)F)cc1-c1cnc2c(N)nc(-c3ccnn3C)nn12` (single isomer, unassigned) [Example 51, 2-(3-(4-Amino-2-(1-methyl-1H-pyrazol-5-yl)imidazo[2,1-f][1,2,4]triazin-7-yl)-4-methylphenyl)-1,1-difluoropropan-2-ol trifluoroacetate salt]: the concentration for half-maximal inhibition (IC50) in experiment [1], in experiment [2] and in experiment [3] (setting [4]) was below 100 nM throughout.
Turning to `Cc1ncc(-c2nc(N)c3ncc(-c4cc(C(C)(O)C(F)F)ccc4C)n3n2)o1` (single isomer, unassigned) [Example 52, 2-(3-(4-Amino-2-(2-methyloxazol-5-yl)imidazo[2,1-f][1,2,4]triazin-7-yl)-4-methylphenyl)-1,1-difluoropropan-2-ol trifluoroacetate salt], the IC50 was below 100 nM in experiment [1], 100 to 500 nM in experiment [2] and 100 to 500 nM in experiment [3] (setting [4]).
Turning to `Cc1ccc(C(C)(O)C(F)(F)C(F)(F)F)cc1-c1cnc2c(N)nc(C(F)(F)F)cn12` (single isomer, unassigned) [Example 60, 2-(3-(8-Amino-6-(trifluoromethyl)imidazo[1,2-a]pyrazin-3-yl)-4-methylphenyl)-3,3,4,4,4-pentafluorobutan-2-ol], the concentration for half-maximal inhibition (IC50) in experiment [1] was below 100 nM; in experiment [2] it was 500 to 2000 nM; in experiment [3] (setting [4]), above 1000 nM.
For `Cc1ccc(C(C)(O)C(F)(F)F)cc1-c1cnc2c(N)nc(C(=O)NCC(C)(C)O)cn12` (single isomer, unassigned) [Example 63, 8-amino-N-(2-hydroxy-2-methylpropyl)-3-(2-methyl-5-(1,1,1-trifluoro-2-hydroxypropan-2-yl)phenyl)imidazo[1,2-a]pyrazine-6-carboxamide], the values for the IC50 in experiment [1], in experiment [2] and in experiment [3] (THP-1 cells) were below 100 nM, 100 to 500 nM and 100 to 500 nM, respectively.
With `[2H]C([2H])([2H])n1nccc1-c1cn2c(-c3cc(C(O)(CO)C(F)(F)F)ccc3C)cnc2c(N)n1` (single isomer, unassigned) [Example 66, 2-(3-(8-Amino-6-(1-(methyl-d3)-1H-pyrazol-5-yl)imidazo[1,2-a]pyrazin-3-yl)-4-methylphenyl)-3,3,3-trifluoropropane-1,2-diol], the half-maximal inhibitory concentration (IC50) in experiment [1], in experiment [2] and in experiment [3] (setting [4]) was below 100 nM throughout.
For the molecule `Cc1ccc(C(O)(CO)C(F)(F)F)cc1-c1cnc2c(N)nc(C(F)(F)F)cn12` (single isomer, unassigned) [Example 72, 2-(3-(8-Amino-6-(trifluoromethyl)imidazo[1,2-a]pyrazin-3-yl)-4-methylphenyl)-3,3,3-trifluoropropane-1,2-diol], the IC50 was below 100 nM in experiment [1], 100 to 500 nM in experiment [2] and below 100 nM in experiment [3] (THP-1 cells).
Take `Cc1ccc(C(O)(CO)C(F)(F)F)cc1-c1cnc2c(N)nc(C(F)(F)F)cn12` (single isomer, unassigned) [Example 73, 2-(3-(8-Amino-6-(trifluoromethyl)imidazo[1,2-a]pyrazin-3-yl)-4-methylphenyl)-3,3,3-trifluoropropane-1,2-diol]: the values for the IC50 in experiment [1], in experiment [2] and in experiment [3] (THP-1 cells) were below 100 nM, 100 to 500 nM and 500 to 1000 nM, respectively.
For `CCOC(=O)C1CC1c1cn2c(-c3cc(C(C)(O)C(F)F)ccc3C)cnc2c(N)n1` (single isomer, unassigned) [Example 75, Ethyl 2-(8-amino-3-(5-(1,1-difluoro-2-hydroxypropan-2-yl)-2-methylphenyl)imidazo[1,2-a]pyrazin-6-yl)cyclopropane-1-carboxylate trifluoroacetate salt], the concentration for half-maximal inhibition (IC50) in experiment [1] is below 100 nM; in experiment [2], 100 to 500 nM; in experiment [3] (setting [4]), 100 to 500 nM.
As for `Cc1ccc(C(C)(O)C(F)F)cc1-c1cnc2c(N)nc(C3CC3CO)cn12` (single isomer, unassigned) [Example 79, 2-(3-(8-Amino-6-(2-(hydroxymethyl)cyclopropyl)imidazo[1,2-a]pyrazin-3-yl)-4-methylphenyl)-1,1-difluoropropan-2-ol], the half-inhibitory concentration (IC50) in experiment [1] was below 100 nM; in experiment [2], 500 to 2000 nM; in experiment [3] (setting [4]), 100 to 500 nM.
In the same order, the values of `Cc1ccc(C(C)(O)C(F)(F)F)cc1-c1cnc2c(N)nc(C(=O)N[C@@H](B(O)O)C3CCC3)cn12` (single isomer, unassigned) [Example 117] are below 100 nM, 500 to 2000 nM and above 1000 nM.
In the same order, the values of `Cc1ccc(C(C)(O)C(F)F)cc1-c1cnc2c(N)nc(-c3ccc(C(C)O)nc3)cn12` (single isomer, unassigned) [Example 136, 2-(3-(8-Amino-6-(6-(1-hydroxyethyl)pyridin-3-yl)imidazo[1,2-a]pyrazin-3-yl)-4-methylphenyl)-1,1-difluoropropan-2-ol] are below 100 nM, 100 to 500 nM and below 100 nM.
In the same order, the values of `Cc1ccc(C(C)(O)C(F)(F)F)cc1-c1cnc2c(N)nc(C3CC(CO)C3)cn12` (single isomer, unassigned) [Example 207, 2-(3-(8-amino-6-(3-(hydroxymethyl)cyclobutyl)imidazo[1,2-a]pyrazin-3-yl)-4-methylphenyl)-1,1,1-trifluoropropan-2-ol trifluoroacetate] are below 100 nM, below 100 nM and below 100 nM.
